Experimental data taken from patent US20060069132A1, “Azolecarboxamide herbicides” (priority 2004, published 2006).

Tests used:
[1] = system: Surinam grass; assay: Test B pre-/postemergence herbicide test; type: in vivo, Urochloa decumbens
How it was run: (§1)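 Greenhouse pot assay with simultaneous preemergence (treated seed) and postemergence (2–18 cm seedlings) applications of surfactant-containing, non-phytotoxic solvent formulations. Response scored visually 13–15 days later on a 0–100 scale, 100 meaning complete control.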

[2] = system: wild oat; assay: Test B postemergence herbicide test; type: in vivo, Avena fatua; conditions: scale 0 (no effect) to 100 (complete control)
How it was run: (§2)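 Postemergence plants were sprayed with formulated test chemicals at 2 to 18 cm height (1- to 4-leaf stage); paddy species were grown to the 2-leaf stage. After 13 to 15 days in a greenhouse, injury was rated visually against untreated controls on a 0–100 scale (0 = no effect, 100 = complete control).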

[3] = system: blackgrass; assay: Test B postemergence herbicide test; type: in vivo, Alopecurus myosuroides; conditions: scale 0 (no effect) to 100 (complete control)
How it was run: (§3)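 Paddy species grown to the 2-leaf stage under flooding; blackgrass sprayed postemergence at 2–18 cm (1- to 4-leaf stage). Plants kept in a greenhouse for 13 to 15 days, then visually rated against controls on 0 (no effect) to 100 (complete control).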

[4] = system: velvetleaf; assay: Test B pre-/postemergence herbicide test; type: in vivo, Abutilon theophrasti
How it was run: as §1

[5] = system: barnyardgrass; assay: Test A pre-/postemergence herbicide test; type: in vivo, Echinochloa crus-galli
How it was run: (§4)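 Pre: seeded sandy loam, directed soil spray, compound in non-phytotoxic solvent + surfactant. Post: 1–2-leaf plants (2–10 cm), sprayed to runoff. Greenhouse ~10 d; visual injury vs untreated, 0–100 scale.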

[6] = system: rice; assay: Test B flooded paddy test; type: in vivo, Oryza sativa; conditions: 1000 g ai/ha, visual rating, scale 0 to 100 (0 no effect, 100 complete control), 13 to 15 days
How it was run: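 Greenhouse test; postemergence application to plants at 1–4 leaves (2–18 cm); paddy species at 2 leaves; evaluated visually vs controls at 13–15 days; scale 0–100 (100 = complete control).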

[7] = system: giant foxtail; assay: Test A pre-/postemergence herbicide test; type: in vivo, Setaria faberi
How it was run: as §4

[8] = system: morningglory; assay: Test A pre-/postemergence herbicide test; type: in vivo, Ipomoea spp.
How it was run: as §4

[9] = system: pigweed; assay: Test B pre-/postemergence herbicide test; type: in vivo, Amaranthus retroflexus
How it was run: as §1

[10] = system: redroot pigweed; assay: Test A pre-/postemergence herbicide test; type: in vivo, Amaranthus retroflexus
How it was run: as §4

[11] = system: barnyardgrass; assay: Test B flooded paddy test; type: in vivo, Echinochloa crus-galli; conditions: 1000 g ai/ha, visual rating, scale 0 to 100 (0 no effect, 100 complete control), 13 to 15 days
How it was run: as §3

[12] = system: ducksalad; assay: Test B flooded paddy test; type: in vivo, Heteranthera limosa; conditions: 1000 g ai/ha, visual rating, scale 0 to 100 (0 no effect, 100 complete control), 13 to 15 days
How it was run: as §3

[13] = system: barnyardgrass; assay: Test B pre-/postemergence herbicide test; type: in vivo, Echinochloa crus-galli
How it was run: (§5)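 Test chemicals in a non-phytotoxic solvent mixture with surfactant were applied preemergence to seeded species and postemergence to plants 2-18 cm tall (1- to 4-leaf stage); rice and barnyardgrass were also tested in a flooded paddy at the 2-leaf stage. Visual rating versus controls after 13-15 days in greenhouse, scale 0 (no effect) to 100 (complete control).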

[14] = system: large crabgrass; assay: Test B pre-/postemergence herbicide test; type: in vivo, Digitaria sanguinalis
How it was run: as §1

[15] = system: cocklebur; assay: Test B pre-/postemergence herbicide test; type: in vivo, Xanthium strumarium
How it was run: as §5

[16] = system: lambsquarters; assay: Test B pre-/postemergence herbicide test; type: in vivo, Chenopodium album
How it was run: as §1

[17] = system: large crabgrass; assay: Test A pre-/postemergence herbicide test; type: in vivo, Digitaria sanguinalis
How it was run: as §4

[18] = system: corn; assay: Test B pre-/postemergence herbicide test; type: in vivo, Zea mays
How it was run: as §1

[19] = system: velvetleaf; assay: Test A pre-/postemergence herbicide test; type: in vivo, Abutilon theophrasti
How it was run: as §4

[20] = system: morningglory; assay: Test B pre-/postemergence herbicide test; type: in vivo, Ipomoea coccinea
How it was run: as §5

[21] = system: wheat; assay: Test B postemergence herbicide test; type: in vivo, Triticum aestivum; parameters: key to Wheat plant response rating: 0 = no effect, 100 = complete control; conditions: scale 0 (no effect) to 100 (complete control)
How it was run: as §2

[22] = system: giant foxtail; assay: Test B pre-/postemergence herbicide test; type: in vivo, Setaria faberi
How it was run: as §1

[23] = system: small flower umbrella sedge; assay: Test B flooded paddy test; type: in vivo, Cyperus difformis; conditions: 1000 g ai/ha, visual rating, scale 0 to 100 (0 no effect, 100 complete control), 13 to 15 days
How it was run: as §3

[24] = 500 g ai/ha, visual rating 0-100, 0 no effect, 100 complete control, preemergence
[25] = Postemergence, 500 g ai/ha, visual rating after 13 to 15 days, scale 0 (no effect) to 100 (complete control)
[26] = postemergence, 125 g ai/ha, visual rating, scale 0 (no effect) to 100 (complete control)
[27] = preemergence, 125 g ai/ha, 0 to 100 scale, 0 is no effect, 100 is complete control
[28] = Postemergence, 500 g ai/ha, visual rating after 13 to 15 days
[29] = postemergence, 125 g ai/ha, visual rating
[30] = Postemergence, 125 g ai/ha, 0 to 100 scale, 0 no effect, 100 complete control
[31] = Postemergence, 500 g ai/ha, 0 to 100 scale, 0 no effect, 100 complete control
[32] = Preemergence, 500 g ai/ha, visual rating, 0 to 100 scale (0 no effect, 100 complete control)
[33] = preemergence, 125 g ai/ha, visual injury, 0 to 100 scale (0 no effect, 100 complete control)

## CC(=NO)c1cccc(NC(=O)c2cc(C(C)(C)C)nn2C(C)C)c1 [Compound 110]
[1]; [24]
  Plant response rating, Surinam Grass: 10
[1]; [25]
  Plant response rating, Surinam Grass: 30
[1]; [26]
  Surinam Grass plant response rating: 20
[1]; [27]
  Plant response rating, Surinam Grass: 10
[2]; [28]
  Plant response rating, Oat, Wild: 0
[2]; [29]
  Oat, Wild plant response rating: 0
[3]; [28]
  Plant response rating, Blackgrass: 0
[3]; [29]
  Blackgrass plant response rating: 0
[4]; [24]
  Plant response rating, Velvetleaf: 10
[4]; [25]
  Plant response rating, Velvetleaf: 40
[4]; [26]
  Velvetleaf plant response rating: 30
[4]; [27]
  Plant response rating, Velvetleaf: 0
[5]; [30]
  Barnyardgrass plant response rating: 30
[5]; [31]
  Barnyardgrass plant response rating: 30
[5]; [32]
  Barnyardgrass plant response rating: 5
[5]; [33]
  Barnyardgrass plant response rating: 10
[6]
  Rice plant response rating: 20
[7]; [30]
  Foxtail, Giant plant response rating: 20
[7]; [31]
  Foxtail, Giant plant response rating: 25
[7]; [32]
  Foxtail, Giant plant response rating: 0
[7]; [33]
  Foxtail, Giant plant response rating: 0
[8]; [30]
  Morningglory plant response rating: 0
[8]; [31]
  Morningglory plant response rating: 10
[8]; [32]
  Morningglory plant response rating: 20
[8]; [33]
  Morningglory plant response rating: 10
[9]; [24]
  Plant response rating, Pigweed: 10
[9]; [25]
  Plant response rating, Pigweed: 50
[9]; [26]
  Pigweed plant response rating: 20
[9]; [27]
  Plant response rating, Pigweed: 0
[10]; [30]
  Pigweed plant response rating: 40
[10]; [31]
  Pigweed plant response rating: 50
[10]; [32]
  Pigweed plant response rating: 10
[10]; [33]
  Pigweed plant response rating: 10
[11]
  Barnyardgrass plant response rating: 30
[12]
  Ducksalad plant response rating: 0
[13]; [24]
  Plant response rating, Barnyardgrass: 10
[13]; [25]
  Plant response rating, Barnyardgrass: 20
[13]; [26]
  Barnyardgrass plant response rating: 10
[13]; [27]
  Plant response rating, Barnyardgrass: 10
[14]; [24]
  Plant response rating, Crabgrass, Large: 100
[14]; [25]
  Plant response rating, Crabgrass, Large: 20
[14]; [26]
  Crabgrass, Large plant response rating: 10
[14]; [27]
  Plant response rating, Crabgrass, Large: 80
[15]; [24]
  Plant response rating, Cocklebur: 10
[15]; [25]
  Plant response rating, Cocklebur: 40
[15]; [26]
  Cocklebur plant response rating: 10
[15]; [27]
  Plant response rating, Cocklebur: 0
[16]; [24]
  Plant response rating, Lambsquarters: 90
[16]; [25]
  Plant response rating, Lambsquarters: 60
[16]; [26]
  Lambsquarters plant response rating: 40
[16]; [27]
  Plant response rating, Lambsquarters: 20
[17]; [30]
  Crabgrass, Large plant response rating: 25
[17]; [31]
  Crabgrass, Large plant response rating: 30
[17]; [32]
  Crabgrass, Large plant response rating: 20
[17]; [33]
  Crabgrass, Large plant response rating: 15
[18]; [24]
  Plant response rating, Corn: 0
[18]; [25]
  Plant response rating, Corn: 20
[18]; [26]
  Corn plant response rating: 10
[18]; [27]
  Plant response rating, Corn: 0
[19]; [30]
  Velvetleaf plant response rating: 10
[19]; [31]
  Velvetleaf plant response rating: 10
[19]; [32]
  Velvetleaf plant response rating: 10
[19]; [33]
  Velvetleaf plant response rating: 10
[20]; [24]
  Plant response rating, Morningglory: 60
[20]; [25]
  Plant response rating, Morningglory: 30
[20]; [26]
  Morningglory plant response rating: 20
[20]; [27]
  Plant response rating, Morningglory: 20
[21]; [28]
  Plant response rating, Wheat: 30
[21]; [29]
  Wheat plant response rating: 10
[22]; [24]
  Plant response rating, Foxtail, Giant: 20
[22]; [25]
  Plant response rating, Foxtail, Giant: 10
[22]; [26]
  Foxtail, Giant plant response rating: 10
[22]; [27]
  Plant response rating, Foxtail, Giant: 10
[23]
  Sedge, Umbrella plant response rating: 20
